Here are results for five substances from patent US12594227B2, “Tetrapeptide and compositions comprising tetrapeptides” (THE BOOTS COMPANY PLC, priority 2020, dated 2026).

One assay relates to LAMB2. Description: LC-MS/MS relative protein abundance in secretome/matrisome of HDFs: LAMB2. The format is cell-based, human. The note with it: 8 ppm peptide, seven-day culture. How it is done: (§1) Following incubation with the peptides, liquid chromatography tandem mass spectrometry (LC-MS/MS) was used to quantify the relative abundance differences between proteins identified in the secretome/matrisome, versus an untreated control. HDFs from a donor, plated at 50,000 cells per well, were cultured with either peptide dissolved in cell culture media to achieve a final concentration of 8 ppm or with media without any peptide as a negative control. Treated and control cells were tested in triplicate. The cells were cultured as normal for five days in serum-supplemented media and then for a further two days in serum-free media (seven-day culture in total). The cell media containing the secretome (the proteins secreted by the cell) and the ECM, decellularized by incubation with EDTA (ethylenediaminetetraacetic acid), containing the matrisome (the collection of ECM associated proteins) were collected. The combined secretome and the matrisome compartments were subsequently analysed by LC-MS/MS using the following protocol.
(§2) Proteins were denatured (in urea), reduced (in dithiothreitol) and mechanically disassociated (using ultrasonication) prior to overnight digestion with trypsin (SMART Digest™ trypsin kit; Thermo Fisher). After digestion, samples were cleaned of contaminants up by removal of organic molecules and surfactants using biphasic extraction and desalted using OLIGO™ R3 Reversed Phase Resin (Thermo Fisher).
(§3) Samples (200 ng) were ran on an UltiMate® 3000 Rapid Separation Liquid Chromatographer coupled to a Q Exactive™ Hybrid Quadrupole-Orbitrap™ Mass Spectrometer for 90-minutes per sample run. Spectral data was searched again the Uniprot Human proteome database using Mascot v2.5.1. Subsequent protein identification and data-dependent quantification was performed using Progenesis QI. Normalised protein abundances were compared between each peptide treatment and control. Statistical analysis was performed within Progenesis QI using a between sample ANOVA.
(§4) The mass spectrometry data for each peptide is shown below in table 3 and FIG. 1. […] These protein families were as follows: proteoglycans, UV DNA repair proteins, basement membrane protein and cell-adhesion proteins; functional protein families with a potentially important role in dermal repair and remodelling.
(§5) The results of the above mass spectrometry experiments wherein a range of tetrapeptides are applied to HDFs to elicit a response in the expression of dermal extracellular proteins are provided in table 3 below. The protein family which the protein belongs to is also shown. Mass spectrometry results using peptide sequences, according to the invention (column 1) and not according to the present invention (columns 2, 3 and 4), are also presented within the table for comparison.

A further assay relates to NID1. Description: LC-MS/MS relative protein abundance in secretome/matrisome of HDFs: NID1. To be noted: 8 ppm peptide, seven-day culture. The format is cell-based, human. As to the method:
as §1, §2, §3, §4, §5

In another assay the test system is RAD23A. Description: LC-MS/MS relative protein abundance in secretome/matrisome of HDFs: RAD23A. The format is cell-based, human. The note with it: 8 ppm peptide, seven-day culture. As to the method: as §1, §2, §3, §4, §5
Another assay has as its system CDH2. As to the kind of experiment: LC-MS/MS relative protein abundance in secretome/matrisome of HDFs: CDH2. The format is cell-based, human. To be noted: 8 ppm peptide, seven-day culture. How it is done:
as §1, §2, §3, §4, §5

Another assay concerns LGALS3. As to the kind of experiment: LC-MS/MS relative protein abundance in secretome/matrisome of HDFs: LGALS3. The note with it: 8 ppm peptide, seven-day culture. The format is cell-based, human. As to the method: as §1, §2, §3, §4, §5
The next assay has as its system CSPG2. As to the kind of experiment: LC-MS/MS relative protein abundance in secretome/matrisome of HDFs: CSPG2. The assay is classed as cell-based, human. The note with it: 8 ppm peptide, seven-day culture. How it is done:
as §1, §2, §3, §4, §5

Another assay has as its system Collagen 1 (PIP). Description: ELISA assay of collagen I (via PIP) in culture supernatant of human dermal fibroblasts. The assay is classed as cell-based. To be noted: 5 ppm peptide; normal human dermal fibroblasts; 72 hours; ELISA weighted to viable cells. How it is done:
(§6) An ELISA is an immunological assay commonly used to measure presence and abundance of a specific proteins (antibodies, antigens, proteins and glycoproteins) in biological samples. In this case ELISAs are being used to quantify the expression of dermal extracellular proteins collagen-1, decorin, and fibronectin. The quantity of collagen I is evaluated via the quantity of PIP (“carboxU-terminal pro-peptide of procollagen type I”) which is a peptide fragment resulting from the enzymatic degradation of procollagen present outside the fibroblast in the culture supernatant medium. […]
(§7) Normal human dermal fibroblasts cells (HDFs) were cultured in contact with the tetrapeptides of the present invention, or composition without the peptide (negative control), for 72 hours. Thereafter the cultured supernatants were removed, and the quantity of dermal extracellular proteins determined using an ELISA assay for the protein of interest. For the ELISA quantification, cell viability was calculated using Hoechst staining allowing the quantity of dermal proteins to be weighted to the number of viable cells.
The quantity of collagen I is evaluated using the quantity of PIP (“carboxU-terminal pro-peptide of procollagen type I”) which is a peptide fragment resulting from the enzymatic degradation of procollagen present outside the fibroblast in the culture supernatant medium. […]
In general terms: In an ELISA, binding on a coated surface is turned into a signal by an enzyme label.

The test system of another assay is Fibronectin. Description: ELISA assay of fibronectin in culture supernatant of human dermal fibroblasts. The format is cell-based. To be noted: 5 ppm peptide; normal human dermal fibroblasts; 72 hours; ELISA weighted to viable cells. As to the method: as §6, §7
(§8) The effect of the QTAV tetrapeptide on ECM protein expression by fibroblasts as measured by ELISA (column 1) versus tetrapeptide not conforming to the QTAV structure (column 2) are presented in the table below (table 1). Results are expressed as % increase versus the negative control.

A further assay deals with Fibrillin-1. Description: Immunofluorescence of Fibrillin-1 fibre abundance in primary human dermal fibroblasts. The assay is classed as cell-based. The note with it: HDF cells, 5 days. As to the method:
Immunofluorescence relies on the use of antibodies to label a specific protein with a fluorescent dye such as fluorescein isothiocyanate (FITC). In the following experiments, indirect immunofluorescence is used where a primary antibody first recognises and attaches to the specific protein, in this case fibrillin-1, and then a secondary antibody conjugated with FITC directed against the primary antibody is used for detection.
For all experiments, the control liquid stock was prepared by dissolving the powdered peptides in DMSO (Dimethyl Sulfoxide solvent). Peptide powders were dissolved in DMSO at recommended part per million concentrations and then further diluted in the cell culture medium and combined to obtain the desired peptide ratio.
Fibrillin-1 expression was determined using immunofluorescence. Primary human dermal fibroblast (I-IDF) cells were purchased from Promo Cell and came from a donor. […]
The antibody binding to Fibrillin-1 fibres was visualised using a Nikon Eclipse 100 microscope fluorescence setting using an excitation lens for fluorescein isothiocyanate (FITC). […] ImageJ software was used to quantify the Fibrillin-1 fibre abundance and coverage in each image using a threshold of 235 measuring the fibre density.
Results are expressed as a percentage increase in fibrillin abundance compared to untreated control. […]

Another assay relates to Decorin. As to the kind of experiment: ELISA assay of decorin in culture supernatant of human dermal fibroblasts. The assay is classed as cell-based. The note with it: 5 ppm peptide; normal human dermal fibroblasts; 72 hours; ELISA weighted to viable cells. How it is done:
as §6, §7, §8

In assay [1] the test system is proteoglycans, UV DNA repair proteins, basement membrane protein and cell-adhesion proteins. As to the kind of experiment: LC-MS/MS protein families overview (bubble plot FIG. 1) in HDFs. The format is cell-based, human. The note with it: 8 ppm peptide, result in words. As to the method: as §1, with “protocol. […]” for “protocol.”
Samples (200 ng) were ran on an UltiMate® 3000 Rapid Separation Liquid Chromatographer coupled to a Q Exactive™ Hybrid Quadrupole-Orbitrap™ Mass Spectrometer for 90-minutes per sample run. […] Subsequent protein identification and data-dependent quantification was performed using Progenesis QI. […]

The star is where a group is joined. Palmitoyl = CCCCCCCCCCCCCCCC(=O)*

For Pal-GPSG-OH, the “LAMB2 (Basement membrane) protein enhanced versus untreated control” value in the assay on LAMB2 is 25%. Also, the “NID1 (Basement membrane) protein enhanced versus untreated control” value in the assay with NID1 is on record as 28%. For the same substance, the “RAD23A (UV DNA repair) protein enhanced versus untreated control” value in the assay with RAD23A is reported as 51%. The “CDH2 (Cell adhesion) protein enhanced versus untreated control” value in the assay with CDH2 was determined as 85%. The “LGALS3 (Cell adhesion) protein enhanced versus untreated control” value in the assay on LGALS3 stood at 2%. Further, in the assay with CSPG2, the “CSPG2 (Proteoglycans) protein enhanced versus untreated control” value was found to be 20%.
Take Pal-GYIL-OH: the “Collagen 1 (PIP), % increase versus the negative control” value in the assay on Collagen 1 (PIP) is given as −4%. In the assay with Fibronectin, the “Fibronectin, % increase versus the negative control” value was −23%. In addition, in the assay on Fibrillin-1 (10 ppm peptide), the “Fibrillin-1, percentage increase in fibrillin abundance compared to untreated control” value is recorded as “+3%”. Further, in the assay on Decorin, the “Decorin, % increase versus the negative control” value was “+2%”.
Turning to Pal-LSPD-OH, in the assay on LAMB2, the “LAMB2 (Basement membrane) protein enhanced versus untreated control” value stood at 40%. Also, the “NID1 (Basement membrane) protein enhanced versus untreated control” value in the assay with NID1 turned out to be 27%. The “RAD23A (UV DNA repair) protein enhanced versus untreated control” value with RAD23A was 5%. Also, the “CDH2 (Cell adhesion) protein enhanced versus untreated control” value in the assay with CDH2 is listed as 39%. Moreover, the “LGALS3 (Cell adhesion) protein enhanced versus untreated control” value in the assay with LGALS3 was 5%. Further, the “CSPG2 (Proteoglycans) protein enhanced versus untreated control” value with CSPG2 was determined as 5%.
Take Pal-LSPG-OH: the “LAMB2 (Basement membrane) protein enhanced versus untreated control” value with LAMB2 came out at 22%. In addition, in the assay on NID1, the “NID1 (Basement membrane) protein enhanced versus untreated control” value came out at 6.60%^. Besides, the “RAD23A (UV DNA repair) protein enhanced versus untreated control” value in the assay with RAD23A came to 94%. In the assay with CDH2, the “CDH2 (Cell adhesion) protein enhanced versus untreated control” value was found to be 10%. Besides, the “LGALS3 (Cell adhesion) protein enhanced versus untreated control” value in the assay with LGALS3 is 24%. Moreover, the “CSPG2 (Proteoglycans) protein enhanced versus untreated control” value with CSPG2 is under 1%.
Turning to “Pal-QTAV-OH (Palmitoyl-QTAV-OH; SMILES CCCCCCCCCCCCCCCC(=O)N[C@@H](CCC(N)=O)C(=O)N[C@H](C(=O)N[C@@H](C)C(=O)N[C@H](C(=O)O)C(C)C)[C@@H](C)O) [palmitoyl tetrapeptide Gln-Thr-Ala-Val with free C-terminal OH, according to the invention]”, the “Collagen 1 (PIP), % increase versus the negative control” value in the assay on Collagen 1 (PIP) was “+59%”. In the assay on LAMB2, the “LAMB2 (Basement membrane) protein enhanced versus untreated control” value is reported as 27%. Also, the “NID1 (Basement membrane) protein enhanced versus untreated control” value in the assay with NID1 amounted to 32%. The “RAD23A (UV DNA repair) protein enhanced versus untreated control” value in the assay with RAD23A came out at 230%. In addition, the “enhancement of protein families (proteoglycans, UV DNA repair proteins, basement membrane proteins, cell adhesion proteins)” value in assay [1] (FIG. 1 bubble plot) is listed as “the only sequence to significantly enhance”. Besides, the “protein synthesis in comparison to the control” value in [1] (HDFs, LC-MS/MS) was “overall enhancement of protein synthesis”. In the assay with CDH2, the “CDH2 (Cell adhesion) protein enhanced versus untreated control” value is given as 69%. Further, in the assay on Fibronectin, the “Fibronectin, % increase versus the negative control” value is “+87%”. The “Fibrillin-1, percentage increase in fibrillin abundance compared to untreated control” value with Fibrillin-1 (12.5 ppm peptide) is recorded as “+84%”. Moreover, the “LGALS3 (Cell adhesion) protein enhanced versus untreated control” value in the assay with LGALS3 turned out to be 32%. The “CSPG2 (Proteoglycans) protein enhanced versus untreated control” value in the assay on CSPG2 turned out to be 31%. The “Decorin, % increase versus the negative control” value in the assay with Decorin is “+33%”.
